Assay [1] deals with benzodiazepine receptors. Description: 3H-diazepam (3H-DZP) binding assay, displacement at benzodiazepine receptors. The settings on record: tritiated diazepam 2 nM, 0° C., 20 min; read-out: Affinity for BZP receptors Ki. Further details: species or system Wistar rats (cerebral cortex). How it is done:
^3 H-DZP binding assay was carried out according to the previously described method in Life Science, vol. 20, 2101 (1977).
The crude cynaptosomal fraction prepared from the cerebral cortex of Wistar rats aged 9-10 weeks was suspended in 50 mM Tris-hydrochloric acid buffer (pH 7.4) containing 120 mM sodium chloride and 5 mM potassium chloride. These suspensions were used for the following experiment.
The reaction was started by the addition of synaptosomal suspension to the solution containing tritiated diazepam (final concentration is 2 nM) and a known concentration of test compounds at 0° C. for 20 min. The binding was stopped by the filtration under vacuum through Whatman GF/B filters and the filters were immediately washed with the above-mentioned buffer. The radioactivity on the filters was measured by a liquid scintillation counter.
The binding affinities of the compound of the present invention for benzodiazepine receptors are evaluated from its displacement ability for tritiated diazepam at its binding site, which is represented as Ki value (nM).

Assay [2] is described as follows: Anti-bicuculline action. It is filed as in vivo, male ddY mice. To be noted: Mus musculus; (+) bicuculline 0.6 mg/kg i.v. 1 hour after oral administration; prevention of tonic extention; read-out: Antibicuculline effect ED50. How it is done: The anti-bicuculline action of the test compounds was done according to the method reported in Life Science, vol. 21, 1779 (1977).
The test was carried out using groups of 7-14 male ddY mice weighing 20-25 g. The animals were challenged with (+) bicuculline (0.6 mg/kg i.v.) 1 hour after the oral administration of the test compounds. The ED50 values were calculated by the probit method as the dose which prevent the tonic extention in half of the animals.

The subject of assay [3] is benzodiazepine receptors. The settings on record: U.S. Pat. No. 4,849,421; cited from earlier work.
Assay [4] in a line: Effects on seizure induced by maximal electroshock (anti-MES action). The class given is in vivo, male ddY mice. The settings on record: 1 hour before MES. How it is done: The test was carried out using groups of five male ddY mice. The animals were challenged with a maximal electroshock (MES, AC 2000 V, 12.5 mA, 0.2 sec) delivered through bilatesal corneal electrodes 1 hour after the oral or intraperitoneal administration of the test compounds. Antagonism of MES-induced seizure was defined as the absence of the tonic extention.

The nature of assay [5]: Antianxiety effect (Vogel type conflict test). It is filed as in vivo, Wistar rats. To be noted: Rattus norvegicus, po; orally 1 hr before test; P<0.05 vs 0.5% MC control; read-out: Antianxiety effect MED (minimum effective dose). The text has this:
The experimental procedure used modified the method of Vogel et al (1971). Wistar rats were used. They were deprived of water for 72 hr before the test. The rats were placed in a plexiglas conflict test box (light compartment: 38×38×20 cm, dark compartment: 10×10×20 cm). A water bottle with a stainless steel spout was fitted to the middle of the outside, so that the spout extended 3 cm into the box at a height of 10 cm above the grid floor. A drinkometer circuit (Ohara Inc., Nihon Koden) was connected with the spout and the number of licks were counted. The rat was placed into the apparatus where an electric shock (0.2-0.3 mA, 0.3 sec) was given once every 20th lick. After the rat received the first electric shock, the number of shocks were recorded during the subsequent 3 min test period. The test compounds were administered orally 1 hr before the test. The minimum effective dose (MED) was defined as the lowest dose producing a statistically significant difference between 0.5% MC-treated (control) and test drug treated punished responses (One-way ANOVA test; P<0.05).

pKi: −log10 of the molar value.

Consider `CCCc1cc2c(s1)[S+]([O-])CCc1cc(=O)n(-c3ccc(Cl)cc3)nc1-2` (centres unmarked) [Example 70, 2-(4-Chlorophenyl)-9-propyl-5,6-dihydrothienol[2',3':2,3]thiepino[4,5-c]pyridazin-3(2H)-one 7-oxide], for which the pKi in assay [1] is 9.21. Also, the ED50 in assay [2] stood at 0.62 mg/kg.
In the case of `O=c1cc2c(nn1-c1ccc(Cl)cc1)-c1ccccc1SCC2` [2-(4-chlorophenyl)-5,6-dihydro[1]benzothiepino[5,4-c]pyridazin-3(2H)-one], the “activity against BZP receptors” value in assay [3] was “partial agonistic activity”.
On to `O=c1cc2c(nn1-c1ccc(Cl)cc1)-c1cc(Br)sc1S(=O)(=O)CC2` [Example 65, 9-Bromo-2-(4-chlorophenyl)-5,6-dihydrothieno[2',3':2,3]thiepino[4,5-c]pyridazin-3(2H)-one 7,7-dioxide], for which, in assay [1], the pKi was 9.92. Moreover, the ED50 in assay [2] was determined as 1.4 mg/kg.
With `O=C1CC2CCSc3sccc3C2=NN1c1ccc(Cl)cc1` (centres unmarked) [Example 14], the entries for the “Inhibitory rate (anti-MES)” value in assay [4] (30 mg/kg i.p.), in assay [4] (30 mg/kg p.o.) and in assay [4] (100 mg/kg p.o.) were 100%, 40% and 100%, respectively.
Consider `CCc1cc2c(s1)S(=O)(=O)CCc1cc(=O)n(-c3ccc(Cl)cc3)nc1-2` [Example 28, 2-(4-Chlorophenyl)-9-ethyl-5,6-dihydrothieno[2',3':2,3]thiepino[4,5-c]pyridazin-3(2H)-one 7,7-dioxide], for which the pKi in assay [1] is 9.20. In assay [2], the 50% effective dose (ED50) turned out to be 0.23 mg/kg. Also, the minimal effective dose in assay [5] came out at 2.5 mg/kg.
`CCc1cc2c(s1)[S+]([O-])CCc1cc(=O)n(-c3ccc(Cl)cc3)nc1-2` (centres unmarked) [Example 25, 2-(4-chlorophenyl)-9-ethyl-5,6-dihydrothieno[2',3':2,3]thiepino[4,5-c]pyridazin-3(2H)-one 7-oxide]: in assay [1], the pKi was 8.85. Moreover, in assay [2], the ED50 is 0.66 mg/kg. Besides, in assay [4] (30 mg/kg i.p.), the “Inhibitory rate (anti-MES)” value worked out at 80%.
On to `CCc1cc2c(s1)SCCc1cc(=O)n(-c3ccc(OC)cc3)nc1-2` [Example 58, 9-ethyl-2-(4-methoxyphenyl)-5,6-dihydrothieno[2',3':2,3]thiepino[4,5-c]pyridazin-3(2H)-one], for which the pKi in assay [1] was 9.25. Also, the ED50 in assay [2] amounted to 0.4 mg/kg.
As to `CCCc1cc2c(s1)S(=O)(=O)CCc1cc(=O)n(-c3ccc(Cl)cc3)nc1-2` [Example 71, 2-(4-Chlorophenyl)-9-propyl-5,6-dihydrothieno[2',3':2,3]thiepino[4,5-c]pyridazin-3(2H)-one 7,7-dioxide], the “Inhibitory rate (anti-MES)” value in assay [4] (30 mg/kg i.p.) is 100%.
Consider `CC(O)c1cc2c(s1)S(=O)(=O)CCc1cc(=O)n(-c3ccc(Cl)cc3)nc1-2` (centres unmarked) [Example 50, 2-(4-chlorophenyl)-9-(1-hydroxyethyl)-5,6-dihydrothieno[2',3':2,3]thiepino[4,5-c]pyridazin-3(2H)-one 7,7-dioxide], for which the pKi in assay [1] was 9.01. In assay [2], the ED50 was determined as 0.87 mg/kg.
As to `O=c1cc2c(nn1-c1ccc(Cl)cc1)-c1cc(Br)sc1[S+]([O-])CC2` (centres unmarked) [Example 26, 9-bromo-2-(4-chlorophenyl)-5,6-dihydrothieno[2',3':2,3]thiepino[4,5-c]pyridazin-3(2H)-one 7-oxide], the pKi in assay [1] was 8.85. Besides, the ED50 in assay [2] turned out to be 0.56 mg/kg.
Taken in the same sequence, the figures for `CCc1cc2c(s1)S(=O)(=O)CCc1cc(=O)n(-c3ccc(OC)cc3)nc1-2` [Example 64, 9-Ethyl-2-(4-methoxyphenyl)-5,6-dihydrothieno[2',3':2,3]thiepino[4,5-c]pyridazin-3(2H)-one 7,7-dioxide] were 9.36 and 1.4 mg/kg.
With `CCCc1cc2c(s1)SCCc1cc(=O)n(-c3ccc(Cl)cc3)nc1-2` [Example 69, 2-(4-Chlorophenyl)-9-propyl-5,6-dihydrothieno[2',3':2,3]thiepino[4,5-c]pyridazin-3(2H)-one], in assay [4] (30 mg/kg i.p.), the “Inhibitory rate (anti-MES)” value was found to be 80%.
With `CCc1cc2c(s1)SCCc1cc(=O)n(-c3ccc(Cl)cc3)nc1-2` [Example 22, 2-(4-chlorophenyl)-9-ethyl-5,6-dihydrothieno[2',3':2,3]thiepino[4,5-c]pyridazin-3(2H)-one], the pKi in assay [1] is 8.74. Besides, the ED50 in assay [2] was found to be 0.49 mg/kg.

The values are drawn from patent US5175162A, “Thiophene compounds and their pharmaceutical uses” (Yoshitiomi Pharmaceutical Industries Ltd., priority 1989, dated 1992).
